Where only a bound is given, the exact number is not on record here.

Consider `COc1ccccc1CC(=O)N1CCCc2ncc3ccccc3c21`, for which the melting point is 108 to 111 °C.

In turn, `CN1CCC(c2cc3c(N)cccc3c(=O)[nH]2)CC1` had a melting point of 222 to 224 °C.

Consider `COc1ccc(CSc2nnc(-c3ccc4nccn4c3)o2)cc1`, for which the melting point fell in the range of 155 to 156 °C.

`Nc1ncnc2c1c(-c1ccc(Oc3ccccc3)cc1)cn2[C@H]1CC[C@@H](N2CCCCC2)CC1` had a melting point of 192 to 195 °C.

Molecule `COC(=O)C1C(OC)=CCc2ccc(OC)cc21` (configuration not stated) had a melting point of 90 to 91 °C.

As for `C=C(F)C(F)(F)n1ncc(-c2ccc(S(N)(=O)=O)cc2)c(-c2ccc(F)cc2)c1=O`, the melting point was 230 to 232 °C.

`CC(C)COc1ccccc1C1=NC(=O)C2=NC=NC2=N1`: the melting point was in the range of 272 to 273 °C.

As for `CCn1cc(CN(C(=O)C2CCCc3cc(OCCO)ccc32)c2ccc(C(C)C)cc2)cn1` (configuration not stated), the melting point was 137 °C.

As to `CCCN(c1ccncc1[N+](=O)[O-])n1ccc2ccccc21`, the melting point lay within 84 to 86 °C.

`O=C1CC(CCc2ccccc2)Nc2ccccc2N1Cc1ccccc1` (configuration not stated) registered a melting point of 135 to 137 °C.

Turning to `Cc1ccc(-c2noc(-c3ccc4c(c3)C(C)(C)CCC4(C)C)n2)cc1`, the melting point was in the range of 106 to 109 °C.

Consider `FC(F)(F)c1ccc2c(c1)N=Cc1ccccc1O2`, for which the melting point is 86 to 88 °C.

The molecule `COc1c(Cl)ccc(-c2nc(C(=O)Cl)cc(Cl)c2Cl)c1F` had a melting point of 134 to 136 °C.

Regarding `Cc1cc2c(cc1-c1ccc(C=O)s1)C(C)(C)CCC2(C)C`, the melting point lay in the range of 130 to 135 °C.

Molecule `CC(C)C[C@@H](C(=O)N1CCN(C(c2ccc(F)cc2)c2ccc(F)cc2)CC1)N(C)C1CCCCC1` returned a melting point of 171 to 182 °C.

In the case of `Cc1cc(SCCCSc2nnnn2C)nc(N)n1`, the melting point fell in the range of 119 to 120 °C.

For `CCCCOC(=O)C(NC(=O)OCC(Cl)(Cl)Cl)n1cnc2ncncc21` (configuration not stated), the melting point lay in the range of 114 to 116 °C.

In the case of `CS(=O)(=O)Nc1ccc(OCCCN2C(=O)c3ccccc3C2=O)cc1`, the melting point fell in the range of 176 to 178 °C.

Consider `CCOC(=O)N1C(=O)C(C)(C)c2cc(C3=NNC(=O)SC3C)ccc21` (configuration not stated), for which the melting point worked out at 246 °C.

In turn, `Cc1cccc(-c2n[nH]cc2-c2ccc(F)c(-c3ccc[nH]3)c2)n1` gave a melting point of 141 to 142 °C.

Regarding `COc1ccc(-c2c(C(=O)c3ccccc3)c(CBr)nc3cc(OC)c(OC)cc23)cc1OC`, the melting point lay within 182 to 183 °C.

With `CC(C)(C)c1cc(-c2nn(C(=O)c3ccc(Cl)cc3)c3ncccc23)cc(C(C)(C)C)c1O`, the melting point was 256 to 258 °C.

In turn, `Cc1cc2oc(C#N)cc(=O)c2c(C)c1Cl` gave a melting point of 142 to 143 °C.

Turning to `CN(CCSCc1nc[nH]c1CSCCN(C)C(N)=S)C(N)=S`, the melting point lay in the range of 154 to 155 °C.

The molecule `Cc1c[nH]c(=O)c(NC(=O)c2ccccc2F)c1` yielded a melting point of 230 to 232 °C.

Consider `FC(F)(F)c1cccc(-c2cc(Cl)n3nccc3n2)c1`, for which the melting point is 137 to 139 °C.

In turn, `N#Cc1cnc2ccsc2c1Sc1ccc(Cl)cc1Cl` displayed a melting point of 126 to 128 °C.

The molecule `CN(C)C=NS(=O)(=O)c1cc(CCNC(=O)C(F)(F)F)ccc1I` registered a melting point of 155 to 156 °C.

Consider `ON=C(CCN1CCN(c2ccccn2)CC1)c1ccc(F)cc1`, for which the melting point fell in the range of 159 to 160 °C.

`COc1ccc(CCc2nnc(-c3ccc4[nH]nnc4c3)o2)cc1C(F)(F)F` registered a melting point of 154 to 155 °C.

The molecule `CC(C)NC(=O)c1ccc(-c2ccc3nnn(Cc4ccc5ncccc5c4)c3n2)cc1` showed a melting point of 181 to 183 °C.

For the molecule `O=C(CNCCO)Nc1ccccn1`, the melting point was 114 to 115 °C.

`COC(=O)c1sc2cccc(OC)c2c1N(C)C`: the melting point was in the range of 69 to 73 °C.

On to `Cc1c(C(=O)N[C@@H](Cc2ccc(OCc3ccoc3)cc2)C(=O)O)oc2cc(-c3ccc(Cl)cc3)ccc12`, for which the melting point was 108 to 110 °C.

In turn, `S=C1Nc2ccccc2N2CCc3cccc1c32` showed a melting point of 185 to 186 °C.

As for `COC(=O)C(Cc1ccc(Cl)cc1Cl)=NO`, the melting point was 97 to 100 °C.

Consider `CS(=O)(=O)c1ccc(-n2cnc3ccc(-c4nnc(C5CC5)o4)cc32)cc1`, for which the melting point lay within 215 to 216 °C.

Regarding `CCOC(=O)N1CCc2nc3ccccc3c(CO)c2CC1`, the melting point was 158 °C.

`COc1ccc(C2C(Oc3ccccc3)C(=O)N2c2cc(OC)c(OC)c(OC)c2)cc1O` (configuration not stated) had a melting point of 176 to 180 °C.

Consider `CCCNC(=O)C1(O)CC(O)C(O)C(O)C1` (configuration not stated), for which the melting point fell in the range of 132 to 133 °C.

Consider `COc1cc2c(cc1OC(C)=O)C1Cc3ccc(OC)c(OC(C)=O)c3CN1CC2` (configuration not stated), for which the melting point was in the range of 212 to 214 °C.

Regarding `N#Cc1cc(C(=O)NNC(=O)c2occc2-c2cccc(OCc3ccccc3)c2)ccc1O`, the melting point fell in the range of 190 to 195 °C.

The molecule `CCCCCc1c(C(C)C)cc(C(C)C)c(C(C)=O)c1-c1ccc(F)cc1` yielded a melting point of 123 to 124 °C.

`Cc1ccc(S(=O)(=O)OC[C@@H]2CCCN(C)C2)cc1` gave a melting point of 74.5 to 81 °C.

For the molecule `CN(C)c1cccc(Oc2cccc(Cl)n2)c1`, the melting point fell in the range of 71 to 72 °C.

As to `COc1ccc(-c2[nH]ccc2S(=O)(=O)C(F)(F)F)cc1`, the melting point was in the range of 138 to 140 °C.

On to `CC1(C)C2=C(Cl)C(=O)C(Cl)=CC2=Nc2ccc(O)cc21`, for which the melting point is less than 250 °C.

The molecule `COc1cc(Nc2c(C#N)cnc3cc(-c4cccc(CCN5CCOCC5)c4)ccc23)c(Cl)cc1Cl` displayed a melting point of 146 to 148 °C.

`CC(C)C(C(=O)O)c1ccc(OC(F)F)cc1` (configuration not stated) returned a melting point of 63 °C.

With `CN(C)c1ccc(C2OC(C)(C)N=C2c2ccccc2)cc1` (configuration not stated), the melting point worked out at 123 °C.

With `CC(=O)c1ccc2cc(S(N)(=O)=O)sc2c1`, the melting point fell in the range of 154 to 155 °C.

As to `N#Cc1coc2cc(O)ccc2c1=O`, the melting point is 292 to 293 °C.

For the molecule `Sc1nc2ccccc2n1Cc1cc(Cl)cc(Cl)c1`, the melting point was 233 °C.

In turn, `COc1ccc(C=CC(=O)c2ccccc2O)cc1` had a melting point of 81 to 83 °C.

`O=C1NC(=O)N(CCc2ccccc2)C1O` (configuration not stated) yielded a melting point of 168 to 169 °C.

Regarding `COc1ccc(CC(=O)NC(NC(Cc2ccccc2C)=NC#N)C(C)(C)C)cc1` (configuration not stated), the melting point is 199 to 201 °C.

As for `Cc1cccc(C(=O)NCN2CCN(c3ncccc3C#N)CC2)c1`, the melting point lay within 128 to 130 °C.

In the case of `CNC(Cc1ccc(Cl)cc1[N+](=O)[O-])c1ccsc1C` (configuration not stated), the melting point lay in the range of 44 to 46 °C.

Molecule `CC(C)CC(NC1OC(=O)C2C3C=CC(C3)C12)C(=O)OCc1ccccc1` (configuration not stated) gave a melting point of 88 °C.

The molecule `O=C(O)c1nn(Cc2ccccc2)c2c1CCc1cc(OCc3cncnc3)ccc1-2` showed a melting point of 236 to 237 °C.

Consider `COc1cc(SC(C)C)cc(C#N)c1N`, for which the melting point is 81 to 82 °C.

Consider `Cc1ccc(S(=O)(=O)N2[C@@H](CC(=N)NO)CC[C@H]2c2ccc(F)cc2)cc1` (racemic), for which the melting point amounted to 84 °C.

Take `Cc1nc2c(cc1CO)CCCC2=Cc1ccccc1`: the melting point was 102 to 103 °C.

For `CN(C)CCNC(=O)c1cccc(N)c1`, the melting point was in the range of 97 to 100 °C.

The molecule `CCOC(=O)c1cc(OC)c(OC)c(OC)c1-c1c(C(=O)OCC)cc(OC)c2c1OCO2` showed a melting point of 95 to 96.5 °C.

Turning to `Cc1sc(C(F)(F)F)nc1O`, the melting point lay within 108 to 110 °C.

Turning to `COC(=O)CP(=O)(O)C(CCc1ccccc1)NC(=O)OCc1ccccc1` (configuration not stated), the melting point is 143 to 147 °C.

For `O=C(O)c1ccc(C(F)(F)F)c([N+](=O)[O-])c1`, the melting point was 156 to 158 °C.

With `O=C1CCc2cc(Cl)c([N+](=O)[O-])cc21`, the melting point is 110 to 113 °C.

The molecule `CCCCNC(=O)Oc1cccc(NC(=O)CC(C)=O)c1` yielded a melting point of 112 °C.

In turn, `O=C(c1sc(NC(=O)N2CCOCC2)nc1-c1ccco1)C1CCCC1` came in with a melting point of 108 to 110 °C.

As for `CC(=O)N[C@H]1CC[C@H](CCN2CCC(c3ccc(F)c4occc34)CC2)CC1`, the melting point stood at 204 °C.

The molecule `C=CCn1c(=O)[nH]c(=O)n(-c2ccccc2)c1=O` showed a melting point of 63 to 65 °C.

`CC1Cc2nc(N)nc(Cl)c2C1` (configuration not stated): the melting point lay within 182 to 183 °C.

For `CNC(=O)c1cc2ccc3c(c2c(-c2ccc(OC(F)(F)F)cc2)c1CO)OCO3`, the melting point lay within 195 to 197 °C.

The molecule `CCC(=O)NC1Cc2cccc3c2N(CCC3)C1=O` (configuration not stated) registered a melting point of 149 to 152 °C.

The molecule `CC(C)C(NS(=O)(=O)c1ccc(Br)cc1)C(=O)OC(C)(C)C` (configuration not stated) showed a melting point of 108 to 110 °C.

`O=[N+]([O-])c1cccnc1NCc1ccccn1` came in with a melting point of 114 °C.

For the molecule `O=C(c1ccn2c1CSC2c1cccnc1)c1c[nH]c2cc(Cl)ccc12` (configuration not stated), the melting point lay in the range of 263 to 265 °C.

Molecule `C=CCOc1ccc(C(=O)C=Cc2cccc(OC)c2OC)cc1` showed a melting point of 98 to 99 °C.

`COc1cccc2c3c(c(=O)[nH]c12)CCCN3c1ccccc1C` showed a melting point of 203 to 205 °C.

Take `CCOc1c([C@@H]2C[C@@H]2/C=C/C(C)=C/C(=O)O)cc(C(C)(C)C)cc1C(C)(C)C` (racemic): the melting point was in the range of 169 to 174 °C.

`Cc1ccc(C[C@@H](NC(=O)c2cccc3c2C=CCCC3)[C@@H](O)c2ccc(F)cc2)cc1OC(F)(F)C(F)F` (racemic): the melting point fell in the range of 168 to 169 °C.

`COc1ccc(C(=O)NCc2cccc3c2C(=O)N(C2CCC(=O)NC2=O)C3=O)cc1` (configuration not stated): the melting point is 193 to 195 °C.

`C=CC1(C=CC)OC(=O)N(c2cc(Cl)cc(Cl)c2)C1=O` (configuration not stated) registered a melting point of 141 °C.

Molecule `CC(=O)N1C(C(=O)NCCO[N+](=O)[O-])CSC1c1ccccc1` (configuration not stated) came in with a melting point of 103 to 105 °C.

Consider `C1COCCN2CCOCCOCCN(CCO1)CCSCCSCC2`, for which the melting point was 78 to 80 °C.

In turn, `OCC(Nc1ncnc2nc[nH]c12)c1ccccc1` (racemic) showed a melting point of 130 to 138 °C.

In turn, `NC(=O)/C=C1/c2cc(F)ccc2CC1O[N+](=O)[O-]` (configuration not stated) came in with a melting point of 162 to 163 °C.

`CCOC(=O)c1c2n(c3cc(N4CCN(C)CC4)c(F)cc3c1=O)CCCC2`: the melting point was in the range of 163 to 165 °C.

With `CCCCOc1ccc([N+](=O)[O-])c(CO)c1`, the melting point lay within 47 to 49 °C.

In turn, `N#Cc1nc2ccccc2[nH]1` came in with a melting point of 268 °C.

As a reminder, the melting point is the temperature of the solid-liquid transition.

Source of the values: a melting point compilation (Tetko et al.; mined from patent text by program, amines drawn as free bases though some values may be those of a salt).
